According to ChEMBL document CHEMBL5725801, “Fused heterocyclic compounds as CaM kinase inhibitors” (2018):

What was measured:
[1] = CaMKII Cell-Based Activity: CaMKII activity in neonatal rat ventricular myocytes (NRVM) was measured by monitoring the phosphorylation level of phospholamban using high-content imaging. NRVMs were plated in a clear bottom 384-well plate in medium supplemented with 10% fetal bovine serum (FBS) and incubated at 37° C., 5% CO2 overnight. The medium was changed to a serum-free medium and compounds were dosed to the cells. The cells were incubated at 37° C., 5% CO2 for 4 hours and were then treated with 100 nM ATX-II (Alomone Labs) to activate CaMKII. 10 minutes after the addition of ATX-II, the cells were fixed with 4% formaldehyde followed by permeabilization with 0.1% triton X100. The fixed cells were stained with an anti-phospho-phospholamban primary antibody (Santa Cruz Biotechnology) and an Alexa488-labeled anti-rabbit IgG secondary antibody (Life Technologies Corporation) as well as Hoechst 33342 (Life Technologies Corporation). The cells were imaged using an ArrayScan VTI (Cellomics) and analyzed for cells containing a positive fluorescent signal at 485 nm, reported as % responder. The % responders were plotted against the compound concentration to determine the compounds EC50.
[2] = CaMKII delta Biochemical Assay: The biochemical activity of recombinant CaMKIIδ was measured by monitoring the phosphorylation of a target peptide using Homogenous Time Resolved Fluorescence (HTRF) technology from CisBio Bioassays. 10 pM […] (Life Technologie Corporation) was incubated for 1 hour with 110 nM calmodulin (EMD Millipore), 1 μM Biotin-STK1 (target peptide, CisBio Bioassays) and 12 μM ATP (Sigma-Aldrich) in a buffer containing 20 mM Hepes pH7.2, 10 mM MgCl2 and 1 mM CaCl2 as well as the compound to be tested or DMSO at a final concentration of 0.6%. The reaction was stopped with the addition of the detection buffer (containing EDTA) with Eu-cryptate labeled anti-phospho-STK1 antibody (CisBio Bioassays) and 125 nM XL665 labeled streptavidin (CisBio Bioassays).

| Compound | EC50 [1] [nM] | IC50 [2] [nM] |
| --- | --- | --- |
| CCN1C[C@@H](F)C[C@H]1CNC(=O)c1ccnc(-c2cnn3ccc(-c4cccs4)nc23)c1 | 53.4 | 7.07 |
| COc1cc(C(=O)N2CCCC[C@@H]2CN)cc(-c2cnn3ccc(-c4ccccc4)nc23)n1 | 316 | – |
| N[C@@H]1CCC[C@H]2CCCN(C(=O)c3ccnc(-c4cnn5ccc(-c6ccccc6)nc45)c3)[C@H]21 | 71.7 | – |
| NC[C@H]1CCCCN1C(=O)c1cc(Cl)nc(-c2cnn3ccc(-c4ccccc4)nc23)c1 | 33.7 | – |
| N[C@@H]1CCC[C@@H]1NC(=O)c1ccnc(-c2cnn3ccc(-c4ccccc4)nc23)c1 | 303 | – |
| O=C(c1ccnc(-c2cnn3ccc(-c4cccs4)nc23)c1)N1CC2CCC(C1)NC2 (configuration not stated) | 95.4 | – |
| CC(C)(C)c1cc(C(=O)N2CCCC[C@@H]2CN)cc(-c2cnn3ccc(-c4ccccc4)nc23)n1 | 46.6 | – |
| CCN(CC)[C@H](CNC(=O)c1ccnc(-c2cnn3ccc(-c4ccccc4)nc23)c1)COc1ncccn1 | 47.3 | – |
| N[C@H]1CCN(C(=O)c2ccnc(-c3cnn4ccc(-c5ccccc5)nc34)c2)C1 | 200 | – |
| CCNC(C)(C)CNC(=O)c1ccnc(-c2cnn3ccc(-c4ccccc4)nc23)c1 | 67.4 | – |
| O=C(c1ccnc(-c2cnn3ccc(-c4cccs4)nc23)c1)N1CC2CNC(COC2)C1 (configuration not stated) | 259 | – |
| CC(C)(O)CNc1cc(C(=O)N2CC3CCC(C2)NC3)cc(-c2cnn3ccc(-c4cccs4)nc23)n1 (configuration not stated) | 406 | – |
| CC(C)(N)CNC(=O)c1ccnc(-c2cnn3ccc(-c4ccccc4)nc23)c1 | 110 | – |
| CN(C)c1cc(C(=O)N2CC[C@H](N)C2)cc(-c2cnn3ccc(-c4ccccc4)nc23)n1 | 841 | – |
| CCC(CNC(=O)c1ccnc(-c2cnn3ccc(-c4ccccc4)nc23)c1)NCC1CC1 (configuration not stated) | 76.7 | – |
| NC[C@H]1CCCCN1C(=O)c1cc(-c2cnn3ccc(-c4ccccc4)nc23)nc(C2CC2)c1 | 29.2 | – |
| CN(CCn1ccnc1)c1cc(C(=O)N2CC3CCC(C2)NC3)cc(-c2cnn3ccc(-c4cccs4)nc23)n1 (configuration not stated) | 449 | – |

Further lines, with some results ahead:

| EC50 [1] [nM] | Compound | IC50 [2] [nM] |
| --- | --- | --- |
| 127 | CCN(CC)[C@@H](C)CNC(=O)c1cc(-c2cnn3ccc(-c4cccs4)nc23)nc(N2CC[C@H]2C(=O)Nc2nccs2)c1 | – |
| 21.4 | CCN(CC)[C@@H](C)CNC(=O)c1cc(-c2cnn3ccc(-c4cccs4)nc23)nc(N2CC(C)(O)C2)c1 | – |
| 80.8 | O=C(c1ccnc(-c2cnn3ccc(-c4cccs4)nc23)c1)N1CCC[C@@H]2CCNC[C@@H]21 | – |
| 173 | CN1CCC[C@H]1CNC(=O)c1ccnc(-c2cnn3ccc(-c4cccs4)nc23)c1 | – |
| 54.4 | CCN(CC)[C@@H](C)CNC(=O)c1cc(-c2cnn3ccc(-c4cccs4)nc23)nc(N2CC(C(F)(F)F)C2)c1 | – |
| 150 | CCN(CC)[C@@H](C)CNC(=O)c1cc(-c2cnn3ccc(-c4cccs4)nc23)nc(N2CCNC2=O)c1 | – |
| 17.1 | CCN(CC)CCNC(=O)c1ccnc(-c2cnn3ccc(-c4cccs4)nc23)c1 | – |
| 21.4 | CCN(CC)[C@@H](C)CNC(=O)c1ccnc(-c2cnn3ccc(-c4cccs4)nc23)c1 | – |
| 84.2 | CCN(CC)[C@@H](C)CNC(=O)c1cc(-c2cnn3ccc(-c4cccs4)nc23)nc(N2CC[C@H]2C(=O)NOC)c1 | – |
| 168 | CCN(CC)[C@@H](C)CNC(=O)c1cc(-c2cnn3ccc(-c4cccs4)nc23)nc(N2CC(N(C)C)C2)c1 | – |
| 72.9 | CCN(CC)[C@@H](CO)CNC(=O)c1cc(-c2cnn3ccc(-c4cccs4)nc23)nc(N2CC[C@H]2C(=O)NC)c1 | – |
| 306 | CCN(CC)[C@@H](C)CNC(=O)c1cc(NCC(N)=O)nc(-c2cnn3ccc(-c4cccs4)nc23)c1 | – |
| 14.5 | CCN(CC)[C@@H](C)CNC(=O)c1cc(-c2cc[nH]n2)nc(-c2cnn3ccc(-c4cccs4)nc23)c1 | – |
| 53.7 | CCN(CC)CCNC(=O)c1cc(-c2cnn3ccc(-c4cccs4)nc23)nc(N2CC(C)(O)C2)c1 | – |
| 259 | CCN(CC)[C@@H](C)CNC(=O)c1cc(-c2cnn3ccc(-c4cccs4)nc23)nc(N2CCC[C@H]2C(N)=O)c1 | – |
| 654 | CCN[C@@H](C)CNC(=O)c1cc(-c2cnn3ccc(-c4cccs4)nc23)nc(N2CC[C@H]2C(=O)NC)c1 | – |
| 112 | CCN(CC)[C@@H](C)CNC(=O)c1cc(-c2cnn3ccc(-c4cccs4)nc23)nc(N2CCC[C@H]2CO)c1 | – |
| 29.4 | CCN(CC)[C@@H](C)CNC(=O)c1cc(-c2cnn3ccc(-c4cccs4)nc23)nc(N2CC[C@H]2C(=O)N2CC(F)(F)C2)c1 | – |
| 34.3 | CC[C@H](CNC(=O)c1cc(-c2cnn3ccc(-c4cccs4)nc23)nc(N2CC[C@H]2C(=O)NC)c1)N(CC)CC (single isomer, unassigned) | – |
| 13600 | CCN(CC)[C@@H](C)CNC(=O)c1cc(NCC2COC2)nc(-c2cnn3ccc(-c4cccs4)nc23)c1 | – |
| 90.9 | CCN(CC)CCNC(=O)c1cc(-c2cnn3ccc(-c4cccs4)nc23)nc(N2CC(OC)C2)c1 | – |
| 113 | CCN[C@@H](C)CNC(=O)c1cc(N)nc(-c2cnn3ccc(-c4ccccc4)nc23)c1 | – |
| 116 | CN(C)CCNC(=O)c1ccnc(-c2cnn3ccc(-c4cccs4)nc23)c1 | – |
| 46.9 | CCN(CC)[C@@H](C)CNC(=O)c1cc(-c2cnn3ccc(-c4cccs4)nc23)nc(N2CC[C@@H](C(=O)NC)C2)c1 | – |
